Results reported in patent US8202874B2, “Substituted N-oxide pyrazine derivatives” (Mitsubishi Tanabe Pharma Corporation, priority 2008, dated 2012).

Molecular target: GSK3β (Homo sapiens, UniProt P49841)
Test: Inhibitory activity against GSK3β (33P-ATP phosphorylation of prephosphorylated GS1 peptide)
Assay type: biochemical
Settings: protocol 3: 7.5 μM GS1 peptide, 10 μM ATP, 50 mM Hepes pH 7.2, one hour at room temperature
Experimental: Four different protocols can be used.
In a first protocol: 7.5 μM of prephosphorylated GS1 peptide and 10 μM ATP (containing 300,000 cpm of ^33P-ATP) were incubated in 25 mM Tris-HCl, pH 7.5, 0.6 mM DTT, 6 mM MgCl2, 0.6 mM EGTA, 0.05 mg/ml BSA buffer for 1 hour at room temperature in the presence of GSK3beta (total reaction volume: 100 microliters).
In a second protocol: 4.1 μM of prephosphorylated GS1 peptide and 42 μM ATP (containing 260,000 cpm ^33P-ATP) were incubated in 80 mM Mes-NaOH, pH 6.5, 1 mM Mg acetate, 0.5 mM EGTA, 5 mM 2-mercaptoethanol, 0.02% Tween 20, 10% glycerol buffer for 2 hours at room temperature in the presence of GSK3beta.
In a third protocol: 7.5 μM of prephosphorylated GS1 peptide and 10 μM ATP (containing 300,000 cpm of ^33P-ATP) were incubated in 50 mM Hepes, pH 7.2, 1 mM DTT, 1 mM MgCl2, 1 mM EGTA, 0.01% Tween 20 buffer for one hour at room temperature in the presence of GSK3beta (total reaction volume: 100 microliters). […]
The reaction was stopped with 100 microliters of a solution made of 25 g polyphosphoric acid (85% P2O5), 126 ml 85% H3PO4, H2O to 500 ml and then diluted to 1:100 before use. […] Incorporated ^33P radioactivity was determined by liquid scintillation spectrometry. […]

GSK3β, sequence (P49841 whole entry): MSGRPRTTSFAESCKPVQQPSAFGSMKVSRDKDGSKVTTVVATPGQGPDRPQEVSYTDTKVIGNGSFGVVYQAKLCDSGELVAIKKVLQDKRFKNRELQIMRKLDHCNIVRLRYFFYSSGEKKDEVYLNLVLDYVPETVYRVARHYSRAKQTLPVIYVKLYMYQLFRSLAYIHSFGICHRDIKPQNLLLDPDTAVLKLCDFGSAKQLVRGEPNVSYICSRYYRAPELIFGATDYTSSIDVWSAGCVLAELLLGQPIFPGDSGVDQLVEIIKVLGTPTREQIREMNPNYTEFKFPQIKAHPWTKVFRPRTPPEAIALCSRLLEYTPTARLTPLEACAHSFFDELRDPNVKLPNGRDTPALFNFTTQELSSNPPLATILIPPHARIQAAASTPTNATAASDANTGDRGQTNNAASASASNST

[O-][n+]1cc(NCC(O)c2ccccc2)nc(-c2ccncc2)c1 (racemic) [compound 2, (+/−)2-[(4-oxido-6-pyridin-4-ylpyrazin-2-yl)amino]-1-phenylethanol]
IC50: 506 nM
